Source: patent US8741944B2, “Anti-infective agents against intracellular pathogens” (priority 2007, dated 2014)
Like-named read-outs stand apart in the source and are kept apart here.

How the values were obtained:
[1] = system: EKVX (Non-Small Cell Lung Cancer); experiment: NCI DTP tumor cell line screen (SRB), EKVX
Method: (§1) For a typical screening experiment, cells are inoculated into 96 well microtiter plates in 100 μL at plating densities ranging from 5,000 to 40,000 cells/well depending on the doubling time of individual cell lines. After cell inoculation, the microtiter plates are incubated at 37° C., 5% CO2, 95% air and 100% relative humidity for 24 h prior to addition of experimental drugs.
(§2) After 24 h, two plates of each cell line are fixed in situ with TCA, to represent a measurement of the cell population for each cell line at the time of drug addition (Tz). Experimental drugs are solubilized in dimethyl sulfoxide at 400-fold the desired final maximum test concentration and stored frozen prior to use. At the time of drug addition, an aliquot of frozen concentrate is thawed and diluted to twice the desired final maximum test concentration with complete medium containing 50 μg/ml gentamicin. Additional four, 10-fold or ½ log serial dilutions are made to provide a total of five drug concentrations plus control. Aliquots of 100 μl of these different drug dilutions are added to the appropriate microtiter wells already containing 100 μl of medium, resulting in the required final drug concentrations.
(§3) Following drug addition, the plates are incubated for an additional 48 h at 37° C., 5% CO2, 95% air, and 100% relative humidity. For adherent cells, the assay is terminated by the addition of cold TCA. Cells are fixed in situ by the gentle addition of 50 μl of cold 50% (w/v) TCA (final concentration, 10% TCA) and incubated for 60 minutes at 4° C. The supernatant is discarded, and the plates are washed five times with tap water and air dried. Sulforhodamine B (SRB) solution (1001) at 0.4% (w/v) in 1% acetic acid is added to each well, and plates are incubated for 10 minutes at room temperature. After staining, unbound dye is removed by washing five times with 1% acetic acid and the plates are air dried. Bound stain is subsequently solubilized with 10 mM trizma base, and the absorbance is read on an automated plate reader at a wavelength of 515 nm. For suspension cells, the methodology is the same except that the assay is terminated by fixing settled cells at the bottom of the wells by gently adding 50 μl of 80% TCA (final concentration, 16% TCA). Using the seven absorbance measurements [time zero, (Tz), control growth, (C), and test growth in the presence of drug at the five concentration levels (Ti)], the percentage growth is calculated at each of the drug concentrations levels. Percentage growth inhibition is calculated as: [(Ti−Tz)/(C−Tz)]×100 for concentrations for which Ti>/=Tz [(Ti−Tz)/Tz]×100 for concentrations for which Ti<Tz
(§4) Three dose response parameters are calculated for each experimental agent. […] The drug concentration resulting in total growth inhibition (TGI) is calculated from Ti=Tz. […] Values are calculated for each of these three parameters if the level of activity is reached; however, if the effect is not reached or is exceeded, the value for that parameter is expressed as greater or less than the maximum or minimum concentration tested.

[2] = system: A498 (Renal Cancer); experiment: NCI DTP tumor cell line screen (SRB), A498
Method: as §1, §2, §3, §4

[3] = system: ACHN (Renal Cancer); experiment: NCI DTP tumor cell line screen (SRB), ACHN
Method: as §1, §2, §3, §4

[4] = system: TK-10 (Renal Cancer); experiment: NCI DTP tumor cell line screen (SRB), TK-10
Method: as §1, §2, §3, §4

[5] = system: UO-31 (Renal Cancer); experiment: NCI DTP tumor cell line screen (SRB), UO-31
Method: as §1, §2, §3, §4

[6] = system: T-47D (Breast Cancer); experiment: NCI DTP tumor cell line screen (SRB), T-47D
Method: as §1, §2, §3, §4

[7] = system: MOLT-4 (Leukemia); experiment: NCI DTP tumor cell line screen (SRB), MOLT-4
Method: as §1, §2, §3, §4

[8] = system: HOP-62 (Non-Small Cell Lung Cancer); experiment: NCI DTP tumor cell line screen (SRB), HOP-62
Method: as §1, §2, §3, §4

[9] = system: DU-145 (Prostate Cancer); experiment: NCI DTP tumor cell line screen (SRB), DU-145
Method: as §1, §2, §3, §4

[10] = system: HS 578T (Breast Cancer); experiment: NCI DTP tumor cell line screen (SRB), HS 578T
Method: as §1, §2, §3, §4

[11] = system: NCI-H522 (Non-Small Cell Lung Cancer)
Method: as §1, §2, §3, §4

[12] = system: LOX IMVI (Melanoma); experiment: NCI DTP tumor cell line screen (SRB), LOX IMVI
Method: as §1, §2, §3, §4

[13] = system: MALME-3M (Melanoma); experiment: NCI DTP tumor cell line screen (SRB), MALME-3M
Method: as §1, §2, §3, §4

[14] = system: SK-MEL-2 (Melanoma); experiment: NCI DTP tumor cell line screen (SRB), SK-MEL-2
Method: as §1, §2, §3, §4

[15] = system: MDA-MB-435 (Breast Cancer); experiment: NCI DTP tumor cell line screen (SRB), MDA-MB-435
Method: as §1, §2, §3, §4

[16] = system: NCI/ADR-RES (Breast Cancer)
Method: as §1, §2, §3, §4

4-[5-(2-Phenanthrenyl)-3-(trifluoromethyl)-1H-pyrazol-1-yl]-phenyl -guanidine [Compound 71]
GI50 [1]: 1060 nM
TGI [1]: 2.24E−06
Percent Growth ([1]; Log10 Concentration −5.0): −100%
Percent Growth ([1]; Log10 Concentration −7.0): 63%
Percent Growth ([1]; Log10 Concentration −8.0): 55%
GI50 [2]: 16500 nM
TGI [2]: 4.35E−05
Percent Growth ([2]; Log10 Concentration −4.0): −43%
Percent Growth ([2]; Log10 Concentration −5.0): 76%
Percent Growth ([2]; Log10 Concentration −6.0): 73%
Percent Growth ([2]; Log10 Concentration −7.0): 91%
Percent Growth ([2]; Log10 Concentration −8.0): 116%
GI50 [3]: 1670 nM
TGI [3]: 3.15E−06
Percent Growth ([3]; Log10 Concentration −4.0): −22%
Percent Growth ([3]; Log10 Concentration −5.0): −91%
Percent Growth ([3]; Log10 Concentration −6.0): 90%
Percent Growth ([3]; Log10 Concentration −8.0): 80%
GI50 [4]: 1320 nM
TGI [4]: 2.59E−06
Percent Growth ([4]; Log10 Concentration −4.0): −64%
Percent Growth ([4]; Log10 Concentration −5.0): −100%
Percent Growth ([4]; Log10 Concentration −6.0): 71%
Percent Growth ([4]; Log10 Concentration −7.0): 90%
Percent Growth ([4]; Log10 Concentration −8.0): 78%
GI50 [5]: 1570 nM
TGI [5]: 2.92E−06
Percent Growth ([5]; Log10 Concentration −4.0): −35%
Percent Growth ([5]; Log10 Concentration −5.0): −100%
Percent Growth ([5]; Log10 Concentration −7.0): 94%
Percent Growth ([5]; Log10 Concentration −8.0): 91%
GI50 [6]: < 10 nM
TGI [6]: 1.98E−06
Percent Growth ([6]; Log10 Concentration −4.0): −53%
Percent Growth ([6]; Log10 Concentration −5.0): −76%
Percent Growth ([6]; Log10 Concentration −6.0): 32%
Percent Growth ([6]; Log10 Concentration −7.0): 47%
Percent Growth ([6]; Log10 Concentration −8.0): 36%
GI50 [7]: 233 nM
TGI [7]: 1.98E−06
Percent Growth ([7]; Log10 Concentration −6.0): 23%
Percent Growth ([7]; Log10 Concentration −7.0): 66%
GI50 [8]: 1720 nM
Percent Growth ([8]; Log10 Concentration −4.0): −36%
Percent Growth ([8]; Log10 Concentration −5.0): −98%
Percent Growth ([8]; Log10 Concentration −7.0): 97%
Percent Growth ([8]; Log10 Concentration −8.0): 100%
GI50 [9]: 1550 nM
TGI [9]: 2.89E−06
Percent Growth ([9]; Log10 Concentration −4.0): −100%
Percent Growth ([9]; Log10 Concentration −5.0): −100%
Percent Growth ([9]; Log10 Concentration −6.0): 85%
Percent Growth ([9]; Log10 Concentration −8.0): 72%
GI50 [10]: 1860 nM
TGI [10]: 3.78E−06
Percent Growth ([10]; Log10 Concentration −4.0): −38%
Percent Growth ([10]; Log10 Concentration −5.0): −69%
Percent Growth ([10]; Log10 Concentration −6.0): 94%
Percent Growth ([10]; Log10 Concentration −7.0): 100%
GI50 [11]: 1450 nM
TGI [11]: 2.82E−06
Percent Growth ([11]; Log10 Concentration −4.0): −43%
Percent Growth ([11]; Log10 Concentration −5.0): −95%
Percent Growth ([11]; Log10 Concentration −6.0): 78%
Percent Growth ([11]; Log10 Concentration −8.0): 82%
GI50 [12]: 1340 nM
TGI [12]: 2.65E−06
Percent Growth ([12]; Log10 Concentration −4.0): −53%
Percent Growth ([12]; Log10 Concentration −5.0): −98%
Percent Growth ([12]; Log10 Concentration −6.0): 72%
Percent Growth ([12]; Log10 Concentration −8.0): 73%
GI50 [13]: 1010 nM
TGI [13]: 2.33E−06
Percent Growth ([13]; Log10 Concentration −4.0): −50%
Percent Growth ([13]; Log10 Concentration −6.0): 50%
Percent Growth ([13]; Log10 Concentration −8.0): 52%
GI50 [14]: 1570 nM
TGI [14]: 2.91E−06
Percent Growth ([14]; Log10 Concentration −4.0): −29%
Percent Growth ([14]; Log10 Concentration −5.0): −100%
Percent Growth ([14]; Log10 Concentration −7.0): 97%
Percent Growth ([14]; Log10 Concentration −8.0): 85%
GI50 [15]: 1700 nM
TGI [15]: 3.07E−06
Percent Growth ([15]; Log10 Concentration −4.0): −27%
Percent Growth ([15]; Log10 Concentration −5.0): −100%
Percent Growth ([15]; Log10 Concentration −6.0): 95%
GI50 [16]: 2640 nM
TGI [16]: 7.73E−06
Percent Growth ([16]; Log10 Concentration −4.0): −47%
Percent Growth ([16]; Log10 Concentration −6.0): 95%
Percent Growth ([16]; Log10 Concentration −8.0): 98%
